Results reported in ChEMBL document CHEMBL3286199, “Synthesis, in vitro antimicrobial and cytotoxic activities of novel pyrimidine-benzimidazol combinations” (Bioorg Med Chem Lett, 2014).
In brackets after ≈: the same amount, converted by molar mass.

Experiments:
Escherichia coli = test: Antimicrobial activity against Escherichia coli after 18 to 24 hrs by broth microdilution method; assay type: functional
MGC-803 = test: Cytotoxicity against human MGC803 cells after 72 hrs by MTT assay; assay type: functional, cell-based; conditions: MGC-803, 72 h
[1] = Cytotoxicity against human EC109 cells after 72 hrs by MTT assay; assay type: functional, cell-based; conditions: ECa-109, 72 h
[2] = system: Stenotrophomonas maltophilia; test: Antimicrobial activity against Stenotrophomonas maltophilia after 18 to 24 hrs by broth microdilution method; assay type: functional
MCF7 = test: Cytotoxicity against human MCF7 cells after 72 hrs by MTT assay; assay type: functional, cell-based; conditions: MCF7, 72 h
Candida albicans = test: Antimicrobial activity against Candida albicans after 48 hrs by broth microdilution method; assay type: functional
Bacillus subtilis = test: Antimicrobial activity against Bacillus subtilis after 18 to 24 hrs by broth microdilution method; assay type: functional
PC-3 = test: Cytotoxicity against human PC3 cells after 72 hrs by MTT assay; assay type: functional, cell-based; conditions: PC-3, 72 h
Staphylococcus aureus = test: Antimicrobial activity against Staphylococcus aureus after 18 to 24 hrs by broth microdilution method; assay type: functional

Row | SMILES | MIC (Escherichia coli) | IC50 (MGC-803) | IC50 [1] | MIC [2] | IC50 (MCF7) | MIC (Candida albicans) | MIC (Bacillus subtilis) | IC50 (PC-3) | MIC (Staphylococcus aureus)
1 | Cc1cc(N(C)Cc2ccccc2)nc(SCc2nc3ccccc3[nH]2)n1 | > 128 µg/mL | 31.3 µM | > 100 µM | 16 µg/mL (≈ 42.6 µM) | > 100 µM | 128 µg/mL (≈ 341 µM) | > 128 µg/mL | > 100 µM | 128 µg/mL (≈ 341 µM)
2 | O=c1[nH]cc(F)c(=O)[nH]1 [FLUOROURACIL] | – | 8.13 µM | 24.1 µM | – | 7.76 µM | – | – | 4.68 µM | –
3 | Cc1cc(N2CCCCC2)nc(SCc2nc3ccccc3[nH]2)n1 | > 128 µg/mL | > 100 µM | > 100 µM | 64 µg/mL (≈ 189 µM) | > 100 µM | 32 µg/mL (≈ 94.3 µM) | > 128 µg/mL | > 100 µM | > 128 µg/mL
4 | Cc1cc(Nc2cccc(C(F)(F)F)c2)nc(SCc2nc3ccccc3[nH]2)n1 | > 128 µg/mL | > 100 µM | > 100 µM | 8 µg/mL (≈ 19.3 µM) | > 100 µM | > 128 µg/mL | > 128 µg/mL | > 100 µM | > 128 µg/mL
5 | Cc1cc(NCCO)nc(SCc2nc3ccccc3[nH]2)n1 | 64 µg/mL (≈ 203 µM) | > 100 µM | > 100 µM | 64 µg/mL (≈ 203 µM) | > 100 µM | > 128 µg/mL | > 128 µg/mL | > 100 µM | > 128 µg/mL
6 | Cc1cc(Nc2ccc(F)cc2)nc(SCc2nc3ccccc3[nH]2)n1 | 64 µg/mL (≈ 175 µM) | 5.77 µM | 69.5 µM | 32 µg/mL (≈ 87.6 µM) | 42.2 µM | 8 µg/mL (≈ 21.9 µM) | 64 µg/mL (≈ 175 µM) | 56.2 µM | 32 µg/mL (≈ 87.6 µM)
7 | Cc1cc(NNC(N)=S)nc(SCc2nc3ccccc3[nH]2)n1 | > 128 µg/mL | > 100 µM | > 100 µM | 128 µg/mL (≈ 371 µM) | > 100 µM | 128 µg/mL (≈ 371 µM) | > 128 µg/mL | > 100 µM | > 128 µg/mL
8 | Cc1ccc(Nc2cc(C)nc(SCc3nc4ccccc4[nH]3)n2)cc1 | 32 µg/mL (≈ 88.5 µM) | 7.39 µM | 57.3 µM | 8 µg/mL (≈ 22.1 µM) | 56.5 µM | 64 µg/mL (≈ 177 µM) | 64 µg/mL (≈ 177 µM) | 56 µM | 32 µg/mL (≈ 88.5 µM)
9 | COc1ccc(Nc2cc(C)nc(SCc3nc4ccccc4[nH]3)n2)cc1 | 128 µg/mL (≈ 339 µM) | 51.1 µM | 69.8 µM | 16 µg/mL (≈ 42.4 µM) | 61.1 µM | 64 µg/mL (≈ 170 µM) | 32 µg/mL (≈ 84.8 µM) | 67.4 µM | 64 µg/mL (≈ 170 µM)
10 | Cc1cc(N(CCO)CCO)nc(SCc2nc3ccccc3[nH]2)n1 | 64 µg/mL (≈ 178 µM) | > 100 µM | > 100 µM | 128 µg/mL (≈ 356 µM) | > 100 µM | > 128 µg/mL | > 128 µg/mL | > 100 µM | > 128 µg/mL
11 | Cc1cc(N2CCNCC2)nc(SCc2nc3ccccc3[nH]2)n1 | > 128 µg/mL | > 100 µM | > 100 µM | 32 µg/mL (≈ 94 µM) | > 100 µM | > 128 µg/mL | 128 µg/mL (≈ 376 µM) | > 100 µM | > 128 µg/mL
12 | Cc1cc(NC(C)C)nc(SCc2nc3ccccc3[nH]2)n1 | > 128 µg/mL | > 100 µM | > 100 µM | 32 µg/mL (≈ 102 µM) | > 100 µM | 128 µg/mL (≈ 408 µM) | > 128 µg/mL | > 100 µM | > 128 µg/mL
13 | Cc1cc(N2CCOCC2)nc(SCc2nc3ccccc3[nH]2)n1 | > 128 µg/mL | > 100 µM | > 100 µM | 32 µg/mL (≈ 93.7 µM) | > 100 µM | > 128 µg/mL | > 128 µg/mL | > 100 µM | > 128 µg/mL
14 | Cc1cc(Nc2ccc(Br)cc2)nc(SCc2nc3ccccc3[nH]2)n1 | 128 µg/mL (≈ 300 µM) | 26.8 µM | 42.9 µM | 4 µg/mL (≈ 9.38 µM) | 38 µM | 8 µg/mL (≈ 18.8 µM) | 128 µg/mL (≈ 300 µM) | 37.1 µM | 16 µg/mL (≈ 37.5 µM)
15 | Cc1cc(Nc2ccc(Cl)cc2)nc(SCc2nc3ccccc3[nH]2)n1 | 128 µg/mL (≈ 335 µM) | 28.2 µM | 20.4 µM | 2 µg/mL (≈ 5.24 µM) | 33.6 µM | 64 µg/mL (≈ 168 µM) | 128 µg/mL (≈ 335 µM) | 36 µM | 8 µg/mL (≈ 20.9 µM)
16 | C[C@H]1COc2c(N3CCN(C)CC3)c(F)cc3c(=O)c(C(=O)O)cn1c23.C[C@H]1COc2c(N3CCN(C)CC3)c(F)cc3c(=O)c(C(=O)O)cn1c23.O [LEVOFLOXACIN] | 0.125 µg/mL | – | – | 0.25 µg/mL | – | – | 0.25 µg/mL | – | 0.5 µg/mL
17 | COc1ccccc1Nc1cc(C)nc(SCc2nc3ccccc3[nH]2)n1 | 32 µg/mL (≈ 84.8 µM) | 56.2 µM | 34.4 µM | 8 µg/mL (≈ 21.2 µM) | > 100 µM | 128 µg/mL (≈ 339 µM) | 32 µg/mL (≈ 84.8 µM) | 70.8 µM | > 128 µg/mL
18 | OC(Cn1cncn1)(Cn1cncn1)c1ccc(F)cc1F [FLUCONAZOLE] | – | – | – | – | – | 2 µg/mL (≈ 6.53 µM) | – | – | –
